Measured values: patent US12227521B2, “CGRP antagonist compounds” (Nxera Pharma UK Limited, priority 2019, dated 2025)

Biological target: T1, human CGRP receptor (Homo sapiens, UniProt O60894+Q16602)
T1 construct: SK-N-MC endogenously expressing the human CGRP receptor; endogenous in cells; host or cells: SK-N-MC human neuroblastoma cells
Assay: cAMP functional assay (HTRF cAMP dynamic-2) in SK-N-MC cells
Assay type: cell-based
Details: SK-N-MC cells endogenously expressing human CGRP receptor; challenge with EC80 human CGRP (0.3 nM); functional pKb converted from pIC50 by modified Cheng-Prussoff equation
Protocol: cAMP production following receptor activation was determined using the Homogeneous Time-Resolved Fluorescence (HTRF) cAMP dynamic-2 assay (Cisbio, France). The human neuroblastoma cell line SK-N-MC endogenously expressing the human CGRP receptor was seeded at a density of 12,500 cells/well in solid walled 96 well half area plates (Costar, Catalog Number 3688, Corning Life Sciences, Germany). After 16 h incubation at 37° C. media was removed and cells were incubated at 37° C. for 30 min in serum free media containing 500 μM IBMX (Tocris, Abingdon, UK, Catalog Number 2845) and increasing concentrations of test antagonist. Following this cells were challenged with an EC80 concentration of human CGRP (0.3 nM) for a further 30 m at 37°) and then cAMP production was determined as manufacturer's instructions before plates were read on a PheraStar fluorescence plate reader (BMG LabTech, Germany). IC50 values were derived from the inhibition curve. The pIC50 values (where pIC50=−log10 IC50) were converted to a functional pKb value using a modified Cheng-Prussoff equation where Kd=agonist EC50 and L hot=agonist challenge concentration. The pKb values of certain compounds of the invention are detailed in Table 5.

T1 sequence (Q16602 23-461): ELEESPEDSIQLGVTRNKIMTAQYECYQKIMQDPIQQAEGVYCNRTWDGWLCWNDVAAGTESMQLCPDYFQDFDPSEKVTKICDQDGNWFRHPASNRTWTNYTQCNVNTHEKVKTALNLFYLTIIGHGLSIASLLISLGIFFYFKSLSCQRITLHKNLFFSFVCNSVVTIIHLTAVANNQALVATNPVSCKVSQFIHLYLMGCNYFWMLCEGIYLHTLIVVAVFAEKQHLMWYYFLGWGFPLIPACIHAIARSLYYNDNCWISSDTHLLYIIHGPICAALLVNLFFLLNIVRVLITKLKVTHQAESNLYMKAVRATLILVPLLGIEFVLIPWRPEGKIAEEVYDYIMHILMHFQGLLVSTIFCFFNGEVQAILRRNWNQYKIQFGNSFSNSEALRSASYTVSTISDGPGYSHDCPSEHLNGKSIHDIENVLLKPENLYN
T1 sequence (O60894 27-148): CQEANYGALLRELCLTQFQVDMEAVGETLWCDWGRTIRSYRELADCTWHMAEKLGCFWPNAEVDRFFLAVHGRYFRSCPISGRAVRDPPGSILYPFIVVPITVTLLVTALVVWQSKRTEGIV

Kb: 6.31 pM
SMILES: C[C@@H]1[C@H](c2c(F)ccc(F)c2F)C[C@@H]2NC(=O)c3cnc4c(c3)C[C@@]3(C4)C(=O)Nc4ncc(cc43)/C=C/COCCOCCN1C2=O (single isomer, unassigned) [1-1 Isomer 1]
